Test results as given in patent publication US7728012B2, “Carboxamide compounds and their use as calpain inhibitors” (Abbott GmbH & Co. KG, priority 2006, dated 2010).
pKi: −log10 of the molar value.

Legend:
Format in all cases: biochemical
[1] = molecular target: T1, recombinant human cathepsin S (Homo sapiens, UniProt P25774); test: Cathepsin S kinetic fluorescence enzyme inhibition assay; settings: selectivity ratio versus calpain I
T1 construct: purchased Calbiochem 219343; host or cells: E. coli
Experimental: (§1) The following solutions and buffers were employed: • HBS (for 40 ml): 800 μl M HEPES; 2.16 ml 100 mM KCl; 4.8 ml 1M NaCl; 3.59 ml 5% glucose; 60 μl μM MgSO4; 400 μl 100 mM Na pyruvate, 28.19 ml water; pH 7.2-7.5. • lysis buffer (for 20 ml): 400 μl M Tris pH 8.2; 2.74 ml 1M NaCl; 520 μl 0.5M EDTA; 2 ml 10% triton X-100; 0.8 ml (=1:25) CompletePlus (1 tablet/2 ml H2O); 200 μl 100 mM Pefabloc; 13.34 ml water, pH 8.2. • TBST (10×) (for 1 l): 100 mM Tris (12.1 g); 1.5M NaCl (87 g); 1% Tween 20 (10 g), adjusted to pH 8. I Enzyme Inhibition In Vitro: • Testing for blockade of the corresponding enzymic activities was carried out by means of kinetic fluorescence assays (excitation 390 nm, emission 460 nm). • Apparent Ki values were calculated from the experimentally determined IC50 values by the Cheng-Prussoff relation assuming a reversible competitive enzyme inhibition. The Km values of the substrates used under the assay conditions indicated above were: 90 μM (Z-Phe-Arg-AMC, cathepsin B), 10 μM (Z-Gly-Pro-Arg-AMC, cathepsin K), 2 μM (Z-Phe-Arg-AMC, cathepsin L), and 30 μM (Z-Val-Val-Arg-AMC, cathepsin S). • The indicated Ki values are averages of the inhibition constants calculated on the basis of 2 to 4 independent dose-effect plots.
(§2) The following assays were used: • 1. Calpain I: • 20 nM calpain-I—isolated from human erythrocytes (Calbiochem #208713), 100 μM Suc-Leu-Tyr-AMC (Bachem #1-1355) as substrate in buffer with 62 mM imidazole, 0.3 mM CaCl2, 0.10% CHAPS, 0.05% BSA, 1 mM DTT at pH 7.3 and room temperature. • 2. Cathepsin B: • 0.25 nM cathepsin B—isolated from human liver (Calbiochem #219362), 100 μM Z-Phe-Arg-AMC (Bachem #I-1160) as substrate 50 mM MES, 2 mM EDTA, 0.05% Brij 35, 2.5 mM L-cysteine, pH 6.0, room temperature. • 3. Cathepsin K: • 3 nM cathepsin K—activated from recombinant human procathepsin K from E. coli (Calbiochem #342001), 10 μM Z-Gly-Pro-Arg-AMC (Biomol #P-142) as substrate in 50 mM MES, 2 mM EDTA, 0.05% Brij 35, 2.5 mM L-cysteine, pH 6.0, room temperature. • 4. Cathepsin L: • 1 nM cathepsin L—isolated from human liver (Calbiochem #219402), 2 μM Z-Phe-Arg-AMC (Bachem #1-1160) as substrate in 50 mM MES, 2 mM EDTA, 0.05% Brij 35, 2.5 mM L-cysteine, pH 6.0, room temperature. • 5. Cathepsin S: • 0.5 nM recombinant human cathepsin S from E. coli (Calbiochem #219343), 20 μM Z-Val-Val-Arg-AMC (Bachem #1-1540) as substrate in 50 mM MES, 2 mM EDTA, 0.05% Brij 35, 2.5 mM L-cysteine, pH 6.0, room temperature. • The results of the in vitro determination are indicated in Table 1. The following abbreviations are used in Table 1: • The “Calpain activity” column, ++ stands for a calpain Ki (Ki(calpain)) of ≦40 nM and + means: 40 nM<Ki(Calpain)≦100 nM. • The “Sel. cat. B” column indicates the Ki(cathepsin B)/Ki(calpain) ratio. In this connection, ++ means a Ki(cathepsin B)/Ki(calpain) ratio of ≧30 and + means 10≦Ki(cathepsin B)/Ki(calpain)<30. • The “Sel. cat. K” column indicates the Ki(cathepsin K)/Ki(calpain) ratio. In this connection, ++ means a Ki(cathepsin K)/Ki(calpain) ratio of ≧30 and + means 10≦Ki(cathepsin K)/Ki(calpain)<30. • The “Sel. cat. L” column indicates the Ki(cathepsin L)/Ki(calpain) ratio. In this connection, ++ means a Ki(cathepsin L)/Ki(calpain) ratio of ≧50 and + means 30≦Ki(cathepsin L)/Ki(calpain)<50. • The “Sel. cat. S” column indicates the Ki(cathepsin S)/Ki(calpain) ratio. In this connection, ++ means a Ki(cathepsin S)/Ki(calpain) ratio of ≧100 and + means 50≦Ki(cathepsin S)/Ki(calpain)<100.

[2] = molecular target: T2, calpain-I isolated from human erythrocytes (Homo sapiens, UniProt P07384); test: Calpain I kinetic fluorescence enzyme inhibition assay; settings: apparent Ki from IC50 by Cheng-Prussoff; average of 2 to 4 dose-effect plots
T2 construct: calpain-I—isolated from human erythrocytes; purchased Calbiochem 208713; host or cells: human erythrocytes (tissue isolate)
T2 sequence (P07384 1-714): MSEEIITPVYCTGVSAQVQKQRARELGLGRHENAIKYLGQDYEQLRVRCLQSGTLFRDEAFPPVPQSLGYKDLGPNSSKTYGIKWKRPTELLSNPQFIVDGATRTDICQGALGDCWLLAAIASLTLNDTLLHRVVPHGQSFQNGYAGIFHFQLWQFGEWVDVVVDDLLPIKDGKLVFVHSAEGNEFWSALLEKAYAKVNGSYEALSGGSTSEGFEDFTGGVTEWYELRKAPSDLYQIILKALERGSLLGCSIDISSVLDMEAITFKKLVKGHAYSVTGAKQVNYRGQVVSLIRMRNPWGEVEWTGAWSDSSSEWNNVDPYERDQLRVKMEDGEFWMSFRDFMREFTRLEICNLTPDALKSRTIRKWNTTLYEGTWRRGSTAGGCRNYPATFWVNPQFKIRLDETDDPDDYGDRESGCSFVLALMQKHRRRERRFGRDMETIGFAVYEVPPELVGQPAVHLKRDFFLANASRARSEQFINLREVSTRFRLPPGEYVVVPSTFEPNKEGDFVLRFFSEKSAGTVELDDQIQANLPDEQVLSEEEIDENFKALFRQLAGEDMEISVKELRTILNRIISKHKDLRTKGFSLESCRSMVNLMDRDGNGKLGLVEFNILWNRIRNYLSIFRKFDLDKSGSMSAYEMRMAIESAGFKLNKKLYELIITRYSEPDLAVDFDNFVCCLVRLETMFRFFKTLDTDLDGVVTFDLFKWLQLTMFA
T2 sequence (P04632 1-268 partner): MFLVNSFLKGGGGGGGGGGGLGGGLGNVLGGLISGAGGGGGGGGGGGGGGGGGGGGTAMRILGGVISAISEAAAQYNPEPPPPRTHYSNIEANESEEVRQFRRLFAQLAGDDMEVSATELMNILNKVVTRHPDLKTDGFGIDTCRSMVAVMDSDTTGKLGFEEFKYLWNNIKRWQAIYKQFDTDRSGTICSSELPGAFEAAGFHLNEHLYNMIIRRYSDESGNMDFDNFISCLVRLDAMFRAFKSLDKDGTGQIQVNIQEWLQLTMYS
Experimental: as §1, §2

[3] = molecular target: T3, cathepsin L isolated from human liver (Homo sapiens, UniProt P07711); test: Cathepsin L kinetic fluorescence enzyme inhibition assay; settings: selectivity ratio versus calpain I
T3 construct: cathepsin L—isolated from human liver; purchased Calbiochem 219402; host or cells: human liver (tissue isolate)
Experimental: as §1, §2

T1 sequence (P25774 115-331): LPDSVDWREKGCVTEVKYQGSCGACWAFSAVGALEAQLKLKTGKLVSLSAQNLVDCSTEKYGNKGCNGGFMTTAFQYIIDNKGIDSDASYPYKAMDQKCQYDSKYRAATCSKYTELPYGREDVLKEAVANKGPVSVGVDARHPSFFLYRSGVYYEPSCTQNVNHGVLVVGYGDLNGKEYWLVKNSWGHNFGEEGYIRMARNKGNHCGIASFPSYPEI
T3 sequence (P07711 114-333): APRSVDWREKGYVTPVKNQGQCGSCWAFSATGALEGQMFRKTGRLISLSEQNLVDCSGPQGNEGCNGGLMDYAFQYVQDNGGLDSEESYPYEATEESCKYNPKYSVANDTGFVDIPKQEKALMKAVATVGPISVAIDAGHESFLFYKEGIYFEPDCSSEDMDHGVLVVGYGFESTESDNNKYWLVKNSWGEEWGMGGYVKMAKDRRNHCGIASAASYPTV

Structure (SMILES)	Sel cat. S (Ki(cathepsin S)/Ki(calpain) ratio) [1]	pKi [2]	Sel cat. L (Ki(cathepsin L)/Ki(calpain) ratio) [3]
NC(=O)C(=O)C(Cc1ccccc1)NC(=O)c1cccnc1-n1cnc(-c2ccc(Cl)cc2)c1 (centres unmarked) [Example 9, N-(3-Amino-1-benzyl-2,3-dioxopropyl)-2-[4-(4-chlorophenyl)-1H-imidazol-1-yl]nicotinamide]	++ (Ki(cathepsin S)/Ki(calpain) ratio of ≧100)	≥ 7.40	+ (30≦Ki(cathepsin L)/Ki(calpain)<50)
COc1ccc(-c2cn(-c3ncccc3C(=O)NC(Cc3ccccc3)C(=O)C(N)=O)cn2)cc1 (centres unmarked) [Example 13, N-(3-Amino-1-benzyl-2,3-dioxopropyl)-2-[4-(4-methoxyphenyl)-1H-imidazol-1-yl]nicotinamide]	+ (50≦Ki(cathepsin S)/Ki(calpain)<100)	7.00 to 7.40	++ (Ki(cathepsin L)/Ki(calpain) ratio of ≧50)
CCCCC(NC(=O)c1cccnc1-n1cnc(-c2ccc(N3CCOCC3)cc2)c1)C(=O)C(N)=O.Cl (centres unmarked) [Example 15, N-{1-[Amino(oxo)acetyl]pentyl}-2-[4-(4-morpholin-4-ylphenyl)-1H-imidazol-1-yl]nicotinamide hydrochloride]	+ (50≦Ki(cathepsin S)/Ki(calpain)<100)	≥ 7.40	++ (Ki(cathepsin L)/Ki(calpain) ratio of ≧50)
CCCCC(NC(=O)c1cccnc1-n1cnc(-c2ccc(C(F)(F)F)cc2)c1)C(=O)C(N)=O.Cl (centres unmarked) [Example 17, N-{1-[Amino(oxo)acetyl]pentyl}-2-{4-[4-(trifluoromethyl)phenyl]-1H-imidazol-1-yl}nicotinamide hydrochloride]	+ (50≦Ki(cathepsin S)/Ki(calpain)<100)	≥ 7.40	++ (Ki(cathepsin L)/Ki(calpain) ratio of ≧50)
Cl.NC(=O)C(=O)C(Cc1ccccc1)NC(=O)c1cccnc1-n1cnc(-c2ccc(C(F)(F)F)cc2)c1 (centres unmarked) [Example 18, N-(3-Amino-1-benzyl-2,3-dioxopropyl)-2-{4-[4-(trifluoromethyl)phenyl]-1H-imidazol-1-yl}nicotinamide hydrochloride]	++ (Ki(cathepsin S)/Ki(calpain) ratio of ≧100)	≥ 7.40	+ (30≦Ki(cathepsin L)/Ki(calpain)<50)
CCCCC(NC(=O)c1cc(Cl)cnc1-n1cnc(-c2ccccc2)c1)C(=O)C(N)=O.Cl (centres unmarked) [Example 24, N-{1-[Amino(oxo)acetyl]pentyl}-5-chloro-2-(4-phenyl-1H-imidazol-1-yl)nicotinamide hydrochloride]		≥ 7.40	+ (30≦Ki(cathepsin L)/Ki(calpain)<50)
NC(=O)C(=O)C(Cc1ccccc1)NC(=O)c1cccnc1-n1ccc(-c2ccc(Cl)cc2)n1 (centres unmarked) [Example 39, N-(3-Amino-1-benzyl-2,3-dioxopropyl)-2-[3-(4-chlorophenyl)-1H-pyrazol-1-yl]nicotinamide]	++ (Ki(cathepsin S)/Ki(calpain) ratio of ≧100)	7.00 to 7.40	++ (Ki(cathepsin L)/Ki(calpain) ratio of ≧50)
CCCCC(NC(=O)c1cccnc1-n1ccc(-c2ccc(OC)cc2)n1)C(=O)C(N)=O (centres unmarked) [Example 49, N-{1-[Amino(oxo)acetyl]pentyl}-2-[3-(4-methoxyphenyl)-1H-pyrazol-1-yl]nicotinamide]	++ (Ki(cathepsin S)/Ki(calpain) ratio of ≧100)	7.00 to 7.40	+ (30≦Ki(cathepsin L)/Ki(calpain)<50)
CCCCC(NC(=O)c1cccnc1-n1ccc(-c2cccc(N3CCOCC3)c2)n1)C(=O)C(N)=O (centres unmarked) [Example 59, N-{1-[Amino(oxo)acetyl]pentyl}-2-[3-(3-morpholin-4-ylphenyl)-1H-pyrazol-1-yl]nicotinamide]	+ (50≦Ki(cathepsin S)/Ki(calpain)<100)	≥ 7.40	++ (Ki(cathepsin L)/Ki(calpain) ratio of ≧50)
Cc1cn(-c2ncccc2C(=O)NC(Cc2ccccc2)C(=O)C(N)=O)nc1-c1ccccc1 (centres unmarked) [Example 86, N-[3-Amino-2,3-dioxo-1-(phenylmethyl)propyl]-2-(4-methyl-3-phenyl-1H-pyrazol-1-yl)pyridine-3-carboxamide]		≥ 7.40	++ (Ki(cathepsin L)/Ki(calpain) ratio of ≧50)
COCc1cn(-c2ncccc2C(=O)NC(Cc2ccccc2)C(=O)C(N)=O)nc1-c1ccc(F)cc1 (centres unmarked) [Example 170, N-[3-Amino-2,3-dioxo-1-(phenylmethyl)propyl]-2-{3-(4-fluorophenyl)-4-[(methyloxy)methyl]-1H-pyrazol-1-yl}pyridine-3-carboxamide]		7.00 to 7.40	+ (30≦Ki(cathepsin L)/Ki(calpain)<50)
NC(=O)C(=O)C(Cc1ccccc1)NC(=O)c1cccnc1-n1cc(COc2ccccc2)c(-c2ccc(F)cc2)n1 (centres unmarked) [Example 179, N-[3-Amino-2,3-dioxo-1-(phenylmethyl)propyl]-2-{3-(4-fluorophenyl)-4-[(phenyloxy)methyl]-1H-pyrazol-1-yl}pyridine-3-carboxamide]	++ (Ki(cathepsin S)/Ki(calpain) ratio of ≧100)		+ (30≦Ki(cathepsin L)/Ki(calpain)<50)
